Where two headings read alike, the source gives them in different places.
Tests used:
Assay in all cases: Glasshouse assay for herbicidal activity (pre- and post-emergence), percentage phytotoxicity
Assay type in all cases: in vivo
[1] = system: Avena fatua (AVEFA); details: Avena fatua, rate 250 g/ha
In short: (§1)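 Visually rated damage, 0–100%. PRE spray 1 d after sowing, scored 20 DAA; POST spray ~12 d, scored 15 DAA. Glasshouse at 65% humidity, 16 h day.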

[2] = system: Alopecurus myosuroides (ALOMY); details: Alopecurus myosuroides, rate 250 g/ha
In short: as §1

[3] = system: Lolium perenne (LOLPE); details: Lolium perenne, rate 250 g/ha
In short: as §1

[4] = system: Echinochloa crus-galli (ECHCG); details: Echinochloa crus-galli, rate 250 g/ha
In short: as §1

[5] = post-emergence, 360 h, POST-emergence, visual score 15 DAA (100%=total damage, 0%=no damage), read-out: Post-emergence herbicidal activity (percentage phytotoxicity) AVEFA POST
[6] = pre-emergence, 480 h, PRE-emergence, visual score 20 DAA (100%=total damage, 0%=no damage), read-out: Pre-emergence herbicidal activity (percentage phytotoxicity) AVEFA PRE
[7] = post-emergence, 360 h, POST-emergence, visual score 15 DAA (100%=total damage, 0%=no damage), read-out: Post-emergence herbicidal activity (percentage phytotoxicity) ALOMY POST
[8] = pre-emergence, 480 h, PRE-emergence, visual score 20 DAA (100%=total damage, 0%=no damage), read-out: Pre-emergence herbicidal activity (percentage phytotoxicity) ALOMY PRE
[9] = post-emergence, 360 h, POST-emergence, visual score 15 DAA (100%=total damage, 0%=no damage), read-out: Post-emergence herbicidal activity (percentage phytotoxicity) LOLPE POST
[10] = pre-emergence, 480 h, PRE-emergence, visual score 20 DAA (100%=total damage, 0%=no damage), read-out: Pre-emergence herbicidal activity (percentage phytotoxicity) LOLPE PRE
[11] = post-emergence, 360 h, POST-emergence, visual score 15 DAA (100%=total damage, 0%=no damage), read-out: Post-emergence herbicidal activity (percentage phytotoxicity) ECHCG POST
[12] = pre-emergence, 480 h, PRE-emergence, visual score 20 DAA (100%=total damage, 0%=no damage), read-out: Pre-emergence herbicidal activity (percentage phytotoxicity) ECHCG PRE

Measured: pest or weed control at 250 g/ha

Cc1cc(-c2ncc(C#N)cn2)cc(C)c1C1C(=O)CC(CC(=O)NC(C)(C)C)C1=O (stereo not shown) [Compound B270]
100%: [1]; [5] | [2]; [7] | [2]; [8] | [3]; [10] | [4]; [11] | [4]; [12]
90%: [1]; [6] | [3]; [9]

COc1ccc(CNC(=O)CC2CC(=O)C(c3c(C)cc(-c4ncc(F)cn4)cc3C)C2=O)cc1 (stereo not shown) [Compound B271]
90%: [3]; [9]
80%: [1]; [6] | [2]; [8] | [3]; [10]
100%: [1]; [5] | [2]; [7] | [4]; [11] | [4]; [12]

Cc1cc(-c2ncc(F)cn2)cc(C)c1C1C(=O)CC(CC(=O)NCc2ccc(C#N)cc2)C1=O (stereo not shown) [Compound B272]
90%: [4]; [12]
50%: [3]; [10]
80%: [1]; [6] | [2]; [8] | [3]; [9]
100%: [1]; [5] | [2]; [7] | [4]; [11]

Cc1cc(-c2ncc(F)cn2)cc(C)c1C1C(=O)CC(CC(=O)N(C)Cc2cccc(F)c2)C1=O (stereo not shown) [Compound B273]
90%: [1]; [6] | [2]; [8]
100%: [1]; [5] | [2]; [7] | [3]; [9] | [3]; [10] | [4]; [11] | [4]; [12]

C/C=C/c1cc(C)c(C2C(=O)CC(CC(=O)N(C)C(C)(C)C)C2=O)c(CC)c1 (stereo not shown) [Compound B274]
70%: [2]; [8] | [3]; [10] | [4]; [12]
50%: [1]; [6]
90%: [3]; [9]
100%: [1]; [5] | [2]; [7] | [4]; [11]

Cc1cc(-c2ncc(F)cn2)cc(C)c1C1C(=O)CC(CC(=O)NC(C)C)C1=O (stereo not shown) [Compound B275]
100%: [1]; [5] | [1]; [6] | [2]; [7] | [2]; [8] | [3]; [9] | [3]; [10] | [4]; [11] | [4]; [12]

Cc1cc(-c2ncc(F)cn2)cc(C)c1C1C(=O)CC(CC(=O)N2CCOCC2)C1=O (stereo not shown) [Compound B276]
90%: [1]; [5] | [2]; [7] | [3]; [10]
80%: [1]; [6]
100%: [2]; [8] | [3]; [9] | [4]; [11] | [4]; [12]

CCNC(=O)CC1CC(=O)C(c2c(C)cc(-c3ncc(F)cn3)cc2C)C1=O (stereo not shown) [Compound B277]
100%: [1]; [5] | [1]; [6] | [2]; [7] | [2]; [8] | [3]; [9] | [3]; [10] | [4]; [11] | [4]; [12]

C=C(C)CNC(=O)CC1CC(=O)C(c2c(C)cc(-c3ncc(F)cn3)cc2C)C1=O (stereo not shown) [Compound B278]
100%: [1]; [5] | [1]; [6] | [2]; [7] | [2]; [8] | [3]; [10] | [4]; [11] | [4]; [12]
90%: [3]; [9]

Cc1cc(-c2ncc(F)cn2)cc(C)c1C1C(=O)CC(CC(=O)N(C)C)C1=O (stereo not shown) [Compound B279]
100%: [1]; [5] | [1]; [6] | [2]; [7] | [2]; [8] | [3]; [9] | [3]; [10] | [4]; [11] | [4]; [12]

CNC(=O)CC1CC(=O)C(c2c(C)cc(-c3ncc(F)cn3)cc2C)C1=O (stereo not shown) [Compound B280]
100%: [1]; [5] | [1]; [6] | [2]; [7] | [2]; [8] | [3]; [9] | [3]; [10] | [4]; [11] | [4]; [12]

Source: patent US10206394B2, “Herbicidal compounds” (Syngenta Participations AG, priority 2014, dated 2019)
